In US20250352497A1, “BIGUANIDE BASE COMPOSITIONS, BIGUANIDE BASE PHARMACEUTICAL COMPOSITIONS, AND THEIR PREPARATIONS AND USES” (ADA FORSYTH INSTITUTE, INC., priority 2022, published 2025):

How the values were obtained:
Format in all cases: cell-based
[1] = test system: model microbiome simulating human oral microbiome; experiment: pH of model microbiome (supernatant and saliva-derived biofilm) after treatment in the presence of 2% sucrose
Procedure: (§1) Saliva samples were collected and pooled from 5 healthy volunteers as a model microbiome simulating human oral microbiome, and used to inoculate SHI medium containing different test compositions and controls.
(§2) 1 mL pooled saliva sample was added to each well of a 24-well plate that had been pre-coated with sterilized, cell-free saliva. The plate was incubated at 37° C. for 16 h in microaerobic conditions (2% O2, 5% CO2, balanced with nitrogen) to allow biofilm formation. After incubation, planktonic portion was collected, optical density was measured at 600 nm and cells were pelleted for DNA isolation. Meanwhile, 1 mL of SHI medium was added to the biofilm portion of each well, biofilm cells were dispersed by scraping and vortex to break the cell aggregates. Optical density was measured at 600 nm and cells were collected for DNA isolation.
Supernatant and biofilms prepared with the model microbiome simulating human oral microbiome according to Example III were treated with embodiments of the CHX base composition (e.g., solution embodiments of the CHX base composition prepared according to Example I (the CHX base solutions); and MSN3 prepared according to Example II(B)(ii)).
Supernatant and biofilms prepared with the model microbiome simulating human oral microbiome according to Example III were treated with CHX base solution (100 μg/mL, prepared according to Example I(A)); MSN3 (100 μg/mL and 125 μg/mL of CHX base, prepared according to Example I(B)); or nothing (control).

[2] = test system: model microbiome simulating human oral microbiome; experiment: Total colony forming units in supernatant and biofilm after treatment; conditions: supernatant and biofilms
Procedure: as §1, §2
CHX-G and CPC were also evaluated in the same model microbiome prepared in supernatant and biofilms according to Example III.

[3] = test system: model microbiome simulating human oral microbiome; experiment: Bacterial killing effects on model microbiome (optical density at 600 nm)
Procedure: as §1, §2
However, the pH of the treated biofilm appeared to depend on the CHX base concentration administered. The pH of the biofilm treated with CHX base solutions and CHX base loaded MSN remained under 5.5 when the CHX base concentration was 75 μg/mL or lower. […]

Structure (SMILES) | pH of treated biofilms compared with untreated biofilms ([1]; Example V) | bacterial killing compared with MSN3 (200 μg/mL of CHX base) ([2]; 200 μg/mL) | bacteria remaining after treatment ([2]; Example V) | cells present after treatment ([3]; Example IV(B): CHX base solution 100 μg/mL, MSN3 100 and 125 μg/mL of CHX base) | survival/elimination of bacteria after treatment ([3]; Example IV, supernatant and biofilms) | pH of treated microbiome/biofilm compared with control ([1]; Example IV, 16 hr, 2% sucrose) | pH of the treated microbiome ([1]; supernatant and biofilms, various concentrations)
N=C(NCCCCCCNC(=N)NC(=N)Nc1ccc(Cl)cc1)NC(=N)Nc1ccc(Cl)cc1.O=C(O)[C@H](O)[C@@H](O)[C@H](O)[C@H](O)CO.O=C(O)[C@H](O)[C@@H](O)[C@H](O)[C@H](O)CO [CHX-G, chlorhexidine digluconate] | higher pH | killed more bacteria | no trace of bacteria |  |  |  | 
[H]/N=C(\N/C(=N/[H])NCCCCCCNC(=N)NC(=N)Nc1ccc(Cl)cc1)Nc1ccc(Cl)cc1 [CHX base, Chlorhexidine] |  |  |  | abundant of cells | without complete elimination of bacteria | higher pH | ≤ 6.9
